Where two headings read alike, the source gives them in different places.
Tests used:
[1] = target: GCN2 kinase (Homo sapiens, UniProt Q9P2K8); experiment: GCN2 enzyme inhibition assay (Transcreener ADP2 fluorescence polarization); type: biochemical; conditions: 280 μM ATP
How it was run: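 Run at 25 °C in 25 mM Tris-HCl pH 7.5, 50 mM NaCl, 10 mM MgCl2, 1 mM DTT with 4 nM GCN2, 280 μM ATP and 200 μM (RS)7 peptide; compound (0–8 μM final) preincubated 10 min, reaction 1 h. ADP read by antibody/tracer FP; IC50 and Ki(app) from tight-binding fit.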

[2] = target: intracellular GCN2 (phosphorylation of the GCN2 substrate eIF2α) (Homo sapiens, UniProt Q9P2K8); experiment: GCN2 cellular inhibition assay (AlphaScreen SureFire P-eIF2α Ser51, borrelidin-treated U2OS cells); type: cell-based
How it was run: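 Phospho-eIF2α (Ser51) in lysates was quantified by AlphaScreen SureFire after a 1 h, 37 °C treatment of U2OS cells with 10 μM borrelidin and compound at 4-fold dilutions starting from 40 μM final. Inhibition expressed in percent against wells stimulated by borrelidin alone.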

[3] = compounds of Formula III, 4 nM GCN2 kinase
[4] = compounds of Formula III, U2OS cells, 10 μM borrelidin, 1 h, read-out: GCN2 Biomarker (IC50)
[5] = Enzyme activity for compounds of Formula IV, Ki(app), 25° C.
[6] = compounds of Formula IV, biomarker assay, phosphorylated eIF2α Ser51 in borrelidin-treated U2OS cells
[7] = compounds of Formula II, 4 nM GCN2 kinase
[8] = compounds of Formula II, biomarker assay, phosphorylated eIF2α Ser51 in borrelidin-treated U2OS cells

Sequence of intracellular GCN2 (phosphorylation of the GCN2 substrate eIF2α) (Q9P2K8 whole entry): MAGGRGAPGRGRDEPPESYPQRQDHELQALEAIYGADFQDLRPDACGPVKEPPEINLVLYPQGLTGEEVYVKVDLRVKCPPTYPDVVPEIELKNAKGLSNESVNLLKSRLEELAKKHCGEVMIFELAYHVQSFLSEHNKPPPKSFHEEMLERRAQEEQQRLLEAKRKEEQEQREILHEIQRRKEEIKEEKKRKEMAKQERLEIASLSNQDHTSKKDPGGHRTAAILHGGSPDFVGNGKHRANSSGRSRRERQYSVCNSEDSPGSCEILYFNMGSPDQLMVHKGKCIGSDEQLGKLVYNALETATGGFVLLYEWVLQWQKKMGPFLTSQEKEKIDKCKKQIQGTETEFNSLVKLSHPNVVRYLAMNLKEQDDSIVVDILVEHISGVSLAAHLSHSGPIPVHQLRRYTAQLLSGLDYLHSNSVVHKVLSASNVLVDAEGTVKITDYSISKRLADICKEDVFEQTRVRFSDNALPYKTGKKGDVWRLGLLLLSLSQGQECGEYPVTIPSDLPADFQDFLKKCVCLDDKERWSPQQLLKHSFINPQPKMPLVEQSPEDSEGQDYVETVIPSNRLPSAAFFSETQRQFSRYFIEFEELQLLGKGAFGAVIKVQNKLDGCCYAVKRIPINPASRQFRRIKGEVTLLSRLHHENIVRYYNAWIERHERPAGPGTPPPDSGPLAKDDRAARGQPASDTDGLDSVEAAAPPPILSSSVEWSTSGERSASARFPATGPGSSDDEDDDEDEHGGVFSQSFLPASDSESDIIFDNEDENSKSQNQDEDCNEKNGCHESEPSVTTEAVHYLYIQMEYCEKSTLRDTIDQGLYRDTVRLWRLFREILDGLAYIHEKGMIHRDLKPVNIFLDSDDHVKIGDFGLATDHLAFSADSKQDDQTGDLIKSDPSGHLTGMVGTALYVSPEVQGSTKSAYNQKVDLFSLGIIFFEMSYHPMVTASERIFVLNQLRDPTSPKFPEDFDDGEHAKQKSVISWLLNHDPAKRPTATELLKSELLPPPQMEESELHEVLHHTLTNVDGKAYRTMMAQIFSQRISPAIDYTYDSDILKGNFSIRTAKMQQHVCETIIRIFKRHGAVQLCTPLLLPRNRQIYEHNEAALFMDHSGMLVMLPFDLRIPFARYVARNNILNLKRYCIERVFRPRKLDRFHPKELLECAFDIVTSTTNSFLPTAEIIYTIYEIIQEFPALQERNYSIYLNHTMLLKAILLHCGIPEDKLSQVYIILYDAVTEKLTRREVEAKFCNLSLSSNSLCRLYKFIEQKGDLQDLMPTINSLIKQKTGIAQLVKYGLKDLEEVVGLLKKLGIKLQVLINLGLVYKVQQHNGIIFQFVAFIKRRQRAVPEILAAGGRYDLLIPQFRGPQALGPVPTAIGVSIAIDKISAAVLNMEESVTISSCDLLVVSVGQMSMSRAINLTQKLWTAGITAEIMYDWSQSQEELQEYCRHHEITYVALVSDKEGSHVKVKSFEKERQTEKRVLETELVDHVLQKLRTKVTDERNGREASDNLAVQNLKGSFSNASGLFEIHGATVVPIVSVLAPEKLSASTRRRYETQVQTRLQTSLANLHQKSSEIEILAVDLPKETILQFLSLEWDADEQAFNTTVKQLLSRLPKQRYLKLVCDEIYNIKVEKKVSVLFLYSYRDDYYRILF
Sequence of GCN2 kinase (Q9P2K8 whole entry): as above

Compound	Ki [1, 5] [nM]	IC50 [2, 6] [nM]	Ki [1, 7] [nM]	IC50 [2, 8] [nM]	also measured
CS(=O)(=O)NC[C@@H]1CN(c2cc(-c3cnn4ccc(C(F)F)nc34)ccn2)CCO1 [III-6, N-[[(2S)-4-[4-[5-(Difluoromethyl)pyrazolo[1,5-a]pyrimidin-3-yl]-2-pyridyl]morpholin-2-yl]methyl]methanesulfonamide]	–	–	–	–	Ki [1, 3]: < 10 nM; IC50 [2, 4]: 500 to 5000 nM
CP(C)(=O)C1CC(c2cn[nH]c2)CN(c2ccnc(-c3cnc4sc(C(F)(F)F)cn34)n2)C1 (racemic) [Compound V-5, 5-[4-[3-Dimethylphosphoryl-5-(1H-pyrazol-4-yl)-1-piperidyl]pyrimidin-2-yl]-2-(trifluoromethyl)imidazo[2,1-b]thiazole]	–	–	–	–	Ki ([1]; compounds of Formula V, 4 nM GCN2 kinase): 10 to 100 nM; IC50 ([2]; compounds of Formula V, U2OS cells, 10 μM borrelidin, 1 h, read-out: GCN2 Biomarker (IC50)): > 5000 nM
FC(F)(F)c1cn2c(-c3nccc(-c4cnn(C5CCOC5)c4)n3)cnc2cn1 (stereo not shown) [IV-449, 3-(4-(1-(Tetrahydrofuran-3-yl)-1H-pyrazol-4-yl)pyrimidin-2-yl)-6-(trifluoromethyl)imidazo[1,2-a]pyrazine]	100 to 1000	> 5000	–	–	–
NC(=O)c1cn2c(-c3cccc(N4CCN5C(=O)CCCC5C4)n3)cnc2cn1 (stereo not shown) [IV-210, 3-(6-(6-Oxooctahydro-2H-pyrido[1,2-a]pyrazin-2-yl)pyridin-2-yl)imidazo[1,2-a]pyrazine-6-carboxamide]	< 10	500 to 5000	–	–	–
CC1CN(c2ccnc(-c3cnc4cnc(C(F)(F)F)cn34)n2)C(C)C(c2cnn(C)c2)N1 (stereo not shown) [IV-687, 3-(4-(2,5-Dimethyl-3-(1-methyl-1H-pyrazol-4-yl)piperazin-1-yl)pyrimidin-2-yl)-6-(trifluoromethyl)imidazo[1,2-a]pyrazine]	100 to 1000	500 to 5000	–	–	–
FC(F)c1cn2c(-c3nccc(N4CCC(C5CCOCC5)C4)n3)cnc2cn1 (stereo not shown) [IV-102, 6-(Difluoromethyl)-3-(4-(3-(tetrahydro-2H-pyran-4-yl)pyrrolidin-1-yl)pyrimidin-2-yl)imidazo[1,2-a]pyrazine]	100 to 1000	> 5000	–	–	–
NC(=O)c1cn2c(-c3cccc(N4CCCCC4)n3)cnc2cn1 [IV-204, 3-(6-(Piperidin-1-yl)pyridin-2-yl)imidazo[1,2-a]pyrazine-6-carboxamide]	10 to 100	> 5000	–	–	–
CP(C)(=O)C1CC(c2cn[nH]c2)CN(c2ccnc(-c3cnc4cnc(C(F)(F)F)cn34)n2)C1 (stereo not shown) [IV-591, (5-(1H-Pyrazol-4-yl)-1-(2-(6-(trifluoromethyl)imidazo[1,2-a]pyrazin-3-yl)pyrimidin-4-yl)piperidin-3-yl)dimethylphosphine oxide]	100 to 1000	> 5000	–	–	–
FC(F)(F)c1cn2c(-c3nsc(N4CCOC(c5cn[nH]c5)C4)n3)cnc2cn1 (stereo not shown) [IV-704, 2-(1H-pyrazol-4-yl)-4-(3-(6-(trifluoromethyl)imidazo[1,2-a]pyrazin-3-yl)-1,2,4-thiadiazol-5-yl)morpholine]	100 to 1000	> 5000	–	–	–
CC1CN(c2ccnc(-c3cnc4cnc(C(F)(F)F)cn34)n2)C(C)C(c2cnc[nH]2)N1 (single isomer, unassigned) [IV-538, 3-(4-(3-(1H-Imidazol-5-yl)-2,5-dimethylpiperazin-1-yl)pyrimidin-2-yl)-6-(trifluoromethyl)imidazo[1,2-a]pyrazine]	< 10	500 to 5000	–	–	–
CS(=O)(=O)NC[C@@H]1CN(c2cc(-c3cnn4cc(F)c(C(F)F)nc34)ncn2)CCO1 [III-10, N-[[(2S)-4-[6-[5-(Difluoromethyl)-6-fluoro-pyrazolo[1,5-a]pyrimidin-3-yl]pyrimidin-4-yl]morpholin-2-yl]methyl]methanesulfonamide]	–	–	–	–	Ki [1, 3]: < 10 nM; IC50 [2, 4]: < 500 nM
FC(F)c1ccc2ncc(-c3cc(C4=CCOCC4)ncn3)n2n1 [II-357, 6-(Difluoromethyl)-3-(6-(3,6-dihydro-2H-pyran-4-yl)pyrimidin-4-yl)imidazo[1,2-b]pyridazine]	–	–	10 to 1000	> 5000	–
CC1CN(c2ccnc(-c3cnc4cnc(C(F)(F)F)cn34)n2)CC(c2cn[nH]c2Cl)N1 (single isomer, unassigned) [IV-651, 3-[4-[3-(5-Chloro-1H-pyrazol-4-yl)-5-methyl-piperazin-1-yl]pyrimidin-2-yl]-6-(trifluoromethyl)imidazo[1,2-a]pyrazine]	< 10	< 500	–	–	–
CC(=O)N1CCN(c2ccnc(-c3cnc4cnc(C(N)=O)cn34)n2)CC1 [IV-36, 3-(4-(4-Acetylpiperazin-1-yl)pyrimidin-2-yl)imidazo[1,2-a]pyrazine-6-carboxamide]	100 to 1000	> 5000	–	–	–
COCC(=O)N1CCN(c2cc(-c3cnc4ccc(C(F)F)nn34)ccn2)CC1 [II-170, 1-(4-(4-(6-(Difluoromethyl)imidazo[12-b]pyridazin-3-yl)pyridin-2-yl)piperazin-1-yl)-2-methoxyethanone]	–	–	10 to 1000	500 to 5000	–

The next lines start with results.

Ki [1, 5] [nM]	IC50 [2, 6] [nM]	Ki [1, 7] [nM]	IC50 [2, 8] [nM]	Compound	also measured
–	–	< 10	500 to 5000	CS(=O)(=O)NCC1COCCN(c2cc(-c3cnc4ccc(C(F)F)nn34)ccn2)C1 (stereo not shown) [II-99, N-((4-(4-(6-(Difluoromethyl)imidazo[1,2-b]pyridazin-3-yl)pyridin-2-yl)-1,4-oxazepan-6-yl)methyl)methanesulfonamide]	–
–	–	10 to 1000	500 to 5000	CS(=O)(=O)C1CCCN(c2cc(-c3cnc4ccc(C(F)F)nn34)ncn2)C1 (stereo not shown) [II-19, 6-(Difluoromethyl)-3-(6-(3-(methylsulfonyl)piperidin-1-yl)pyrimidin-4-yl)imidazo[1,2-b]pyridazine]	–
–	–	10 to 1000	500 to 5000	O=C1OC[C@@H]2CN(c3cc(-c4cnc5ccc(C(F)F)nn45)ncn3)CCN12 [II-47, (S)-7-(6-(6-(Difluoromethyl)imidazo[1,2-b]pyridazin-3-yl)pyrimidin-4-yl)hexahydro-3H-oxazolo[3,4-a]pyrazin-3-one]	–
–	–	10 to 1000	500 to 5000	NS(=O)(=O)CCC1CN(c2cc(-c3cnc4ccc(C(F)F)nn34)ncn2)CCO1 (stereo not shown) [II-318, 2-(4-(6-(6-(Difluoromethyl)imidazo[1,2-b]pyridazin-3-yl)pyrimidin-4-yl)morpholin-2-yl)ethane-1-sulfonamide]	–
–	–	10 to 1000	500 to 5000	CC1C(CS(C)(=N)=O)CCCN1c1cc(-c2cnc3ccc(C(F)F)nn23)ncn1 (stereo not shown) [II-486, ((1-(6-(6-(Difluoromethyl)imidazo[1,2-b]pyridazin-3-yl)pyrimidin-4-yl)-2-methylpiperidin-3-yl)methyl)(imino)(methyl)-λ^6-sulfanone]	–
–	–	10 to 1000	500 to 5000	CC1C(CO)OCCN1c1cc(-c2cnc3ccc(C(F)F)nn23)ncn1 (stereo not shown) [II-342, (4-(6-(6-(Difluoromethyl)imidazo[1,2-b]pyridazin-3-yl)pyrimidin-4-yl)-3-methylmorpholin-2-yl)methanol]	–
–	–	10 to 1000	500 to 5000	Cc1ccc2ncc(-c3ccnc(N4CCCC(CNS(C)(=O)=O)C4)c3)n2n1 (stereo not shown) [II-183, N-((1-(4-(6-Methylimidazo[1,2-b]pyridazin-3-yl)pyridin-2-yl)piperidin-3-yl)methyl)methanesulfonamide]	–
–	–	10 to 1000	500 to 5000	CS(=O)(=O)NCC1CN(c2cc(-c3cnc4ccc(Cl)nn34)ccn2)CCO1 (stereo not shown) [II-184, N-((4-(4-(6-Chloroimidazo[1,2-b]pyridazin-3-yl)pyridin-2-yl)morpholin-2-yl)methyl)methanesulfonamide]	–
–	–	10 to 1000	500 to 5000	CS(=O)(=O)NCC1CN(c2cc(-c3cnc4ccc(C(F)F)nn34)ncn2)CC2(CC2)O1 (stereo not shown) [II-383, N-((7-(6-(6-(Difluoromethyl)imidazo[1,2-b]pyridazin-3-yl)pyrimidin-4-yl)-4-oxa-7-azaspiro[2.5]octan-5-yl)methyl)methanesulfonamide]	–
–	–	10 to 1000	500 to 5000	NS(=O)(=O)C1CCCN(c2cc(-c3cnc4ccc(C(F)F)nn34)ncn2)C1 (stereo not shown) [II-376, 1-(6-(6-(Difluoromethyl)imidazo[1,2-b]pyridazin-3-yl)pyrimidin-4-yl)piperidine-3-sulfonamide]	–
–	–	< 10	< 500	CC1CN(c2ccnc(-c3cnc4ccc(C(F)F)nn34)c2)CC(CNS(C)(=O)=O)C1(F)F (stereo not shown) [II-75, N-((1-(2-(6-(Difluoromethyl)imidazo[1,2-b]pyridazin-3-yl)pyridin-4-yl)-4,4-difluoro-5-methylpiperidin-3-yl)methyl)methanesulfonamide]	–
–	–	10 to 1000	> 5000	CC1C[S+]([O-])CCN1c1cc(-c2cnc3ccc(C(F)F)nn23)ncn1 (single isomer, unassigned) [II-356, 4-(6-(6-(Difluoromethyl)imidazo[1,2-b]pyridazin-3-yl)pyrimidin-4-yl)-3-methylthiomorpholine 1-oxide]	–
–	–	10 to 1000	> 5000	CC1CCC(CNS(C)(=O)=O)CN1c1cc(-c2cnc3ccc(C(F)F)nn23)ncn1 (stereo not shown) [II-246, N-((1-(6-(6-(Difluoromethyl)imidazo[1,2-b]pyridazin-3-yl)pyrimidin-4-yl)-6-methylpiperidin-3-yl)methyl)methanesulfonamide]	–
–	–	10 to 1000	500 to 5000	O=S(=O)(NCC1CCCN(c2cc(-c3cnc4ccc(C(F)F)nn34)ncn2)C1)C1COC1 (stereo not shown) [II-289, N-((1-(6-(6-(Difluoromethyl)imidazo[1,2-b]pyridazin-3-yl)pyrimidin-4-yl)piperidin-3-yl)methyl)oxetane-3-sulfonamide]	–
